Experimental data taken from US20120189673A1, “POLYPEPTIDES AND USES THEREOF” (priority 2009, published 2012).

What was measured:
[1] = molecular target: C3a (complement anaphylatoxin C3a peptides in chronic wound fibrin slough) (human) (UniProt P01024); assay: double immunogold electron microscopy (C3a 10 nm, C-termini of TFPI 20 nm), evaluation of 50 bacterial profiles in wound fibrin slough
RAW 264.7 macrophages = assay: NO production in RAW 264.7 macrophages stimulated with LPS or other microbial products (Griess reaction); assay type: cell-based, mouse; conditions: LPS from E. coli or P. aeruginosa; peptide at indicated concentrations (FIG. 41C)
Method: Effects of various microbial products on macrophages in vitro and anti-inflammatory effects by various peptides of HCII and TFPI. 3.5×10^5 cells were seeded in 96-well tissue culture plates (Nunc, 167008) in phenol red-free DMEM (Gibco) supplemented with 10% FBS and antibiotics. Following 6 hours of incubation to permit adherence, cells were stimulated with 10 ng/mL E. coli (0111:B4) LPS (Sigma), lipoteichoic acid, peptioglycan, or zymosan, with and without peptides at the indicated doses (se figure legends and figures). The levels of NO in culture supernatants were determined after 24 hours from stimulation using the Griess reaction. Briefly, nitrite, a stable product of NO degradation, was measured by mixing 50 μl of culture supernatants with the same volume of Griess reagent (Sigma, G4410) and reading absorbance at 550 nm after 15 min. Phenol-red free DMEM with FBS and antibiotics were used as a blank. A standard curve was prepared using 0-80 μM sodium nitrite solutions in ddH20.
LPS effects on macrophages in vitro—[…] cells were seeded in 96-well tissue culture plates (Nunc, 167008) in phenol red-free DMEM (Gibco) supplemented with 10% FBS containing 1% Anti-Anti (Invitrogen). Following 20 hours of incubation to permit adherence, cells were washed and stimulated with 10 ng/ml E. coli (0111:B4) or P. aeruginosa LPS (Sigma), with and without the peptides GGL27, GGL27(S), and DSE25 of various doses. The levels of NO in culture supernatants were determined after 24 hours from stimulation using the Griess reaction (27). Briefly, nitrite, a stable product of NO degradation, was measured by mixing 50 μl of culture supernatants with the same volume of Griess reagent (Sigma, G4410) and reading absorbance at 550 nm after 15 min. Phenol-red free DMEM with FBS and antibiotics were used as a blank. A standard curve was prepared using 0-80 μM sodium nitrite solutions in ddH20.

[2] = tested on: Escherichia coli, Pseudomonas aeruginosa, Bacillus subtilis, Staphylococcus aureus, Candida albicans, Candida parapsilosis; assay: Radial diffusion assay (RDA); assay type: cell-based; conditions: peptide at 100 μM, 6 μl per well; 18-24 h at 37° C.
Method: Radial diffusion assay. Essentially as described earlier, bacteria were grown to mid-logarithmic phase in 10 ml of full-strength (3% w/v) trypticase soy broth (TSB) (Becton-Dickinson). The microorganisms were then washed once with 10 mM Tris, pH 7.4. Subsequently, 4×10^6 cfu were added to 15 ml of the underlay agarose gel, consisting of 0.03% (w/v) TSB, 1% (w/v) low electroendosmosis type (EEO) agarose (Sigma-Aldrich) and 0.02% (v/v) Tween 20 (Sigma-Aldrich). The underlay was poured into a Ø 144 mm petri dish. After agarose solidification, 4 mm-diameter wells were punched and 6 μl peptide solution of required concentration added to each well. Plates were incubated at 37° C. for 3 h to allow peptide diffusion. The underlay gel was then covered with 15 ml of molten overlay (6% TSB and 1% Low-EEO agarose in distilled H2O). Antimicrobial activity of a peptide was visualized as a zone of clearing around each well after 18-24 h of incubation at 37° C.
Radial diffusion assay—Essentially as described earlier (23, 24), bacteria were grown to mid-logarithmic phase in 10 ml of full-strength (3% w/v) trypticase soy broth (TSB) (Becton-Dickinson). The microorganisms were then washed once with 10 mM Tris, pH 7.4. […]

[3] = tested on: E. coli LPS shock in C57BL/6 mice; assay: LPS model in vivo (LPS-induced shock): survival, cytokines, lungs; design: species or system mouse; conditions: for overall (proinflammatory) cytokine release: 20 h after LPS injection, peptide 500 μg; for survival: E. coli LPS i.p., peptide 500 μg i.p. 30 minutes after, followed 7 days
Method: Histochemistry—For immunostaining, wound biopsies were fixed in 10% formalin, rehydrated and embedded in paraffin. Sections of 5 μm thickness were placed on poly-lysine coated glass slides, deparaffinized in xylene and rehydrated in graded alcohols. The slides were then treated with Dako antigen retrieval solution (Dako) for 40 min at 97° C., and incubated for 24 h at room temperature in a 1:50 dilution of polyclonal antibodies against TFPI (Sigma-Aldrich, in TBS with 1% BSA, 5% goat serum, 0.05% Tween 20). After three 20 min washes in TBS with 0.05% Tween 20, the sections were incubated with alkaline phosphatase conjugated secondary goat anti-rabbit IgG (Dako) diluted 1:1000 in the same buffer as the primary antibody and incubated for another 24 hours, followed by three 20 min washes. Sections were developed with Vulcan Fast Red chromogen (Biocare Medical, Concord, Calif.) and the slides were counterstained with Harris Hematoxylin (EM Science, Gibbstown, N.J.). For histological evaluation of lungs derived from the in vivo LPS-models in mice, tissues were embedded as above, sectioned and stained with hematoxylin and eosin by routine procedures (Histocenter, Gothenburg, Sweden).
LPS model in vivo—Male C57BL/6 mice (8-10 weeks, 22+/−5 g), were injected intraperitoneally with 18 mg E. coli 0111:B4 LPS (Sigma) per kg of body weight. Thirty minutes after LPS injection, 0.5 mg GGL27, GGL27(S), DSE25 or buffer alone was injected intraperitoneally into the mice. Survival and status was followed during seven days. For blood collection and histochemistry, mice were sacrificed 20 h after LPS challenge, and lungs were removed and fixed. These experiments were approved by the Laboratory Animal Ethics Committee of Malmo/Lund.
Cytokine assay—The cytokines IL-6, IL-10, MCP-1, INF-γ, and TNF-α were measured in plasma from mice subjected to LPS (with or without peptide treatment) using the Cytometric bead array; mouse inflammation kit (Becton Dickinson AB) according to the manufacturer's instructions.

bacteria = conditions: cited from earlier work
[4] = tested on: intrinsic pathway of coagulation in normal human plasma; assay: Clotting assay: activated partial thromboplastin time (aPTT); assay type: biochemical
Method: (§1) Clotting assays. All clotting times were measured using an Amelung coagulometer. Activated partial thromboplastin time (aPTT) was measured by incubating the peptides diluted in sterile water at the indicated concentrations, with 100 μL citrated human plasma for 1 minute followed by the addition of 100 μL aPTT reagent (aPTT Automate, Diagnostica Stago) for 60 seconds at 37° C. Clotting was initiated by the addition of 100 μL of a 25-mM CaCl2 solution. In the prothombrin time assay (PT), clotting was initiated by the addition of 100 μL Thrombomax with calcium (PT reagent; Sigma-Aldrich). For measuring the thrombin clotting time (TCT), clotting was initiated by the addition of 100 μL Accuclot thrombin time reagent (TCT reagent; Sigma-Aldrich).

[5] = tested on: thrombin induced fibrin network formation in normal human plasma; assay: Clotting assay: thrombin clotting time (TCT); assay type: biochemical
Method: as §1

E. coli = assay: Viable count analysis, E. coli; assay type: cell-based, Escherichia coli
Method: Viable count analysis. E. coli ATCC 25922 bacteria were grown to mid-logarithmic phase in Todd-Hewitt (TH) medium. Bacteria were washed and diluted in 10 mM Tris, pH 7.4 containing 5 mM glucose. E. coli ATCC 25922 (50 μl; 2×10^6 cfu/ml) were incubated, at 37° C. for 2 h with peptides at the indicated concentrations. Other experiments with the TFPI-peptides and LL-37 were performed in 10 mM Tris, pH 7.4, containing also 0.15 M NaCl, with normal or heat inactivated 20% citrate-plasma (PP). Serial dilutions of the incubation mixture were plated on TH agar, followed by incubation at 37° C. overnight and cfu determination.
(§2) Viable count analysis—E. coli strains were grown to mid-logarithmic phase in Todd-Hewitt (TH). P. aeruginosa strains were grown in TH overnight. Bacteria were washed and diluted in 10 mM Tris, pH 7.4 containing 5 mM glucose. 2×10^6 cfu/ml bacteria were incubated in 50 μl, at 37° C. for 2 h with the C-terminal TFPI-derived peptides GGL27, TKR22, or LIK17 at the indicated concentrations. Additional experiments were performed in 10 mM Tris, pH 7.4, containing 0.15 M NaCl, either alone or with 20% normal or heat inactivated citrate-plasma. Serial dilutions of the incubation mixture were plated on TH agar, followed by incubation at 37° C. overnight and cfu determination.

P. aeruginosa = assay: Viable count analysis, P. aeruginosa; assay type: cell-based, Pseudomonas aeruginosa; conditions: 20% human citrate plasma
Method: as §2

C3a (complement anaphylatoxin C3a peptides in chronic wound fibrin slough) (human), sequence (P01024 672-748): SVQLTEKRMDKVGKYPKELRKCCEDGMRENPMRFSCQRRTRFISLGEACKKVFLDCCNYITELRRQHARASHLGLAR

Row | Substance | LPS-mediated NO release (RAW 264.7 macrophages) | antimicrobial activity (zones of clearance) [2] | overall (proinflammatory) cytokine release [3] | survival [3] | antibacterial activity at physiological conditions (bacteria) | further results
1 | C-terminal TFPI peptides (endogenous C-terminal fragments of tissue factor pathway inhibitor found in human chronic wound fibrin slough) (from UniProt P10646 268-304) |  |  |  |  |  | percent of TFPI-molecules associated with C3a [1]: 70%
2 | DSEEDEEHTIITDTELPPLKLMHSF (DSE25 control peptide) [control peptide from the N-terminus of TFPI, reference compound] | did neither block NO release | no antimicrobial effects | nor significantly alter overall cytokine release | nor significantly alter overall cytokine release, as well as survival |  | 
3 | GGLISTSSSSSSQRVKIAYEEIFVKNM (GGL27(S) control peptide) [control peptide, central K/R residues of GGL27 replaced by S, reference compound] | did neither block NO release | no antimicrobial effects | nor significantly alter overall cytokine release | nor significantly alter overall cytokine release, as well as survival |  | 
4 | GKRKKKGKGLGKKRDPCLRKYK (Heparin-binding growth factor derived peptide) [GKR22] |  |  |  |  | retain their antibacterial activity at physiological conditions | 
5 | HKHGHGHGKHKNKGKKNGKH (A kininogen-derived antimicrobial peptide) [HKH20] |  |  |  |  | retain their antibacterial activity at physiological conditions | 
6 | TKRKRKKQRVKIAYEEIFVKNM [TKR22, C-terminal peptide of TFPI] |  |  |  |  |  | activated partial thromboplastin time (aPTT) [4]: impair the intrinsic pathway of coagulation; thrombin clotting time (TCT) [5]: not significantly affected; bactericidal activity in presence of human plasma (E. coli; 0.15 M NaCl, 10 mM Tris, pH 7.4 with 20% human citrate plasma, versus buffer): significantly enhanced; bactericidal activity in heat-inactivated plasma (E. coli; 20% heat-inactivated human citrate plasma): abolished the potentiation; killing in human plasma compared with physiological buffer (P. aeruginosa): not enhanced
